Species: Rattus norvegicus
Assay: DrugMatrix - Regimen: Daily Repeat
Format: toxicity, organism-based, Sprague-Dawley
Set-up: regimen Daily Repeat, gender Male, age 6-8 weeks
Conditions: in vivo, po, route oral GAVAGE, […]; for ABSOLUTE BASOPHIL / ABSOLUTE EOSINOPHIL / ABSOLUTE LYMPHOCYTE / ABSOLUTE MONOCYTE / ABSOLUTE SEGMENTED NEUTROPHIL / BASOPHIL / EOSINOPHIL / ERYTHROCYTE COUNT / HEMATOCRIT / HEMOGLOBIN / LEUKOCYTE COUNT / LYMPHOCYTE / MEAN CORPUSCULAR HEMOGLOBIN / MEAN CORPUSCULAR HEMOGLOBIN CONCENTRATION / MEAN CORPUSCULAR VOLUME / MONOCYTE / NEUTROPHIL / NUCLEATED RED BLOOD CELLS / PLATELET COUNT: tissue Blood; for ALANINE AMINOTRANSFERASE / ALBUMIN / ALKALINE PHOSPHATASE / ASPARTATE AMINOTRANSFERASE / BLOOD UREA NITROGEN / CARBON DIOXIDE / CHLORIDE / CHOLESTEROL / CREATINE PHOSPHOKINASE / CREATININE / GLUCOSE / LACTATE DEHYDROGENASE / LIPASE / PHOSPHORUS / POTASSIUM / SODIUM / TOTAL BILIRUBIN / TOTAL PROTEIN / URIC ACID: tissue Plasma
[1] = 100 mg/kg, 120 h, dose level Low, time 5 day
[2] = 700 mg/kg, 72 h, dose level High, time 3 day
[3] = 700 mg/kg, 120 h, dose level High, time 5 day

## CC(=O)Nc1cccc(O)c1 [METACETAMOL]
[1]
  ABSOLUTE BASOPHIL: 0 CELLS/uL
  ABSOLUTE EOSINOPHIL: 0 CELLS/uL
  ABSOLUTE LYMPHOCYTE: 14298.33 CELLS/uL
  ABSOLUTE MONOCYTE: 106.33 CELLS/uL
  ABSOLUTE SEGMENTED NEUTROPHIL: 1828.67 CELLS/uL
  BASOPHIL: 0%
  EOSINOPHIL: 0%
  ERYTHROCYTE COUNT: 5.63 x10E6/uL
  HEMATOCRIT: 35%
  HEMOGLOBIN: 13.73 G/DL
  LEUKOCYTE COUNT: 16.23 x10E3/uL
  LYMPHOCYTE: 88%
  MEAN CORPUSCULAR HEMOGLOBIN: 24.43 pg
  MEAN CORPUSCULAR HEMOGLOBIN CONCENTRATION: 39.23 G/DL
  MEAN CORPUSCULAR VOLUME: 62.23 fL
  MONOCYTE: 0.67%
  NEUTROPHIL: 11.33%
  NUCLEATED RED BLOOD CELLS: 0.33 /100WBC
  PLATELET COUNT: 1235.67 x10E3/uL
  ALANINE AMINOTRANSFERASE: 58.33 u/L
  ALBUMIN: 4.03 G/DL
  ALKALINE PHOSPHATASE: 434.67 u/L
  ASPARTATE AMINOTRANSFERASE: 95 u/L
  BLOOD UREA NITROGEN: 14.67 mg/dL
  CARBON DIOXIDE: 26.67 mmol/L
  CHLORIDE: 101 MEQ/L
  CHOLESTEROL: 68.33 mg/dL
  CREATINE PHOSPHOKINASE: 455.33 u/L
  CREATININE: 0.2 mg/dL
  GLUCOSE: 151 mg/dL
  LACTATE DEHYDROGENASE: 549 u/L
  LIPASE: 10.33 u/L
  PHOSPHORUS: 11.03 mg/dL
  POTASSIUM: 6.46 MEQ/L
  SODIUM: 140.67 MEQ/L
  TOTAL BILIRUBIN: 0.17 mg/dL
  TOTAL PROTEIN: 5.73 G/DL
  URIC ACID: 1.6 mg/dL
[2]
  ABSOLUTE BASOPHIL: 0 CELLS/uL
  ABSOLUTE EOSINOPHIL: 0 CELLS/uL
  ABSOLUTE LYMPHOCYTE: 14734.67 CELLS/uL
  ABSOLUTE MONOCYTE: 227.67 CELLS/uL
  ABSOLUTE SEGMENTED NEUTROPHIL: 1637.67 CELLS/uL
  BASOPHIL: 0%
  EOSINOPHIL: 0%
  ERYTHROCYTE COUNT: 5.31 x10E6/uL
  HEMATOCRIT: 34.37%
  HEMOGLOBIN: 13.6 G/DL
  LEUKOCYTE COUNT: 16.6 x10E3/uL
  LYMPHOCYTE: 89%
  MEAN CORPUSCULAR HEMOGLOBIN: 25.6 pg
  MEAN CORPUSCULAR HEMOGLOBIN CONCENTRATION: 39.6 G/DL
  MEAN CORPUSCULAR VOLUME: 64.7 fL
  MONOCYTE: 1.33%
  NEUTROPHIL: 9.67%
  NUCLEATED RED BLOOD CELLS: 0 /100WBC
  PLATELET COUNT: 1189.67 x10E3/uL
  ALANINE AMINOTRANSFERASE: 61.67 u/L
  ALBUMIN: 4.37 G/DL
  ALKALINE PHOSPHATASE: 420.33 u/L
  ASPARTATE AMINOTRANSFERASE: 80.33 u/L
  BLOOD UREA NITROGEN: 15.67 mg/dL
  CARBON DIOXIDE: 32.33 mmol/L
  CHLORIDE: 98.67 MEQ/L
  CHOLESTEROL: 94 mg/dL
  CREATINE PHOSPHOKINASE: 171 u/L
  CREATININE: 0.17 mg/dL
  GLUCOSE: 144 mg/dL
  LACTATE DEHYDROGENASE: 137 u/L
  LIPASE: 10 u/L
  PHOSPHORUS: 10.6 mg/dL
  POTASSIUM: 6.44 MEQ/L
  SODIUM: 143.63 MEQ/L
  TOTAL BILIRUBIN: 0.27 mg/dL
  TOTAL PROTEIN: 6 G/DL
  URIC ACID: 1.33 mg/dL
[3]
  ABSOLUTE BASOPHIL: 0 CELLS/uL
  ABSOLUTE EOSINOPHIL: 0 CELLS/uL
  ABSOLUTE LYMPHOCYTE: 13480 CELLS/uL
  ABSOLUTE MONOCYTE: 247.33 CELLS/uL
  ABSOLUTE SEGMENTED NEUTROPHIL: 2206 CELLS/uL
  BASOPHIL: 0%
  EOSINOPHIL: 0%
  ERYTHROCYTE COUNT: 5.72 x10E6/uL
  HEMATOCRIT: 35.17%
  HEMOGLOBIN: 13.93 G/DL
  LEUKOCYTE COUNT: 15.93 x10E3/uL
  LYMPHOCYTE: 84.67%
  MEAN CORPUSCULAR HEMOGLOBIN: 24.37 pg
  MEAN CORPUSCULAR HEMOGLOBIN CONCENTRATION: 39.6 G/DL
  MEAN CORPUSCULAR VOLUME: 61.53 fL
  MONOCYTE: 1.67%
  NEUTROPHIL: 13.67%
  NUCLEATED RED BLOOD CELLS: 0.67 /100WBC
  PLATELET COUNT: 1165.67 x10E3/uL
  ALANINE AMINOTRANSFERASE: 57 u/L
  ALBUMIN: 4.27 G/DL
  ALKALINE PHOSPHATASE: 454.33 u/L
  ASPARTATE AMINOTRANSFERASE: 78.67 u/L
  BLOOD UREA NITROGEN: 15.67 mg/dL
  CARBON DIOXIDE: 27.33 mmol/L
  CHLORIDE: 105 MEQ/L
  CHOLESTEROL: 78.67 mg/dL
  CREATINE PHOSPHOKINASE: 239.33 u/L
  CREATININE: 0.25 mg/dL
  GLUCOSE: 169.67 mg/dL
  LACTATE DEHYDROGENASE: 132 u/L
  LIPASE: 10.33 u/L
  PHOSPHORUS: 10.87 mg/dL
  POTASSIUM: 7.12 MEQ/L
  SODIUM: 151.07 MEQ/L
  TOTAL BILIRUBIN: 0.2 mg/dL
  TOTAL PROTEIN: 5.97 G/DL
  URIC ACID: 2 mg/dL

Source: ChEMBL document CHEMBL3885881, “DrugMatrix”
